Key:
[1] = secondary structure by UV circular dichroism; assay type: physicochemical; conditions: 50 μg/ml, 10 mM Tris-HCl buffer pH 7.5, room temperature, 190-240 nm; calculated by the method of Reed and Kinzel
Protocol: The circular dichroism was measured by means of a Jasco J-500 Automatic Recording Spectropolarimeter coupled with a Jasco DP-500 Data Processor. For the determination of the secondary structure, the measurement was carried out in the spectral range of from 190 nm to 240 nm at room temperature in a selected quartz cuvette at a light path of 1 mm. The parathormone concentrations employed were 50 μg/ml of hPTH-(1-33), 50 μg/ml of hPTH-(1-37) and 50 μg/ml of hPTH-(1-38). 10 mM Tris-HCl buffer pH 7.5 was used for dissolution (other conditions of the measurement: Sensitivity 2 milli-degrees/cm; time constant 2 seconds; recorder speed: 4 nm/min; wave length expansion: 5 nm/cm). The curves in FIG. 13 for hPTH-(1-33) hPTH-(1-37) and hPTH-(1-38) are average values for the signals from 4 subsequent measurements minus the base line values.
The evaluation for determining the secondary structure was performed in accordance with the method described by Reed and Kinzel (Biochemistry 23, 1357-1362, 1984).

hPTH-(53-84)-RIA = conditions: synthetic hPTH peptides; data provided by the producer (Immundiagnostik); cited from earlier work
hPTH-(44-68)-RIA = conditions: synthetic hPTH peptides; data provided by the producer (Immundiagnostik); cited from earlier work

For “hPTH-(1-33): synthetic N-terminal human PTH fragment, comparison peptide (SVSEIQLMHNLGKHLNSMERVEWLRKKLQDVHN; Parathyroid hormone; UniProt P01270 32-64, looked up, fragment)”, which “α-helix proportion of the secondary structure” value [1] is on record?
The value was “similarly low as in hPTH-(1-38)”.

Which “cross-reaction in the hPTH-(53-84)-RIA” value (hPTH-(53-84)-RIA) does the source give for “hPTH-(1-34): known synthetic amino-terminal partial sequence of human PTH (SVSEIQLMHNLGKHLNSMERVEWLRKKLQDVHNF; Parathyroid hormone; UniProt P01270 32-65, looked up, fragment)” here?
The value was “do not show any cross-reaction”.

And the “cross-reaction in the hPTH-(44-68)-RIA” value (hPTH-(44-68)-RIA)?
Its value is “do not show any cross-reaction”.

Which “α-helix proportion of the secondary structure” value [1] does the source give for “hPTH-(1-38): known synthetic amino-terminal partial sequence of human PTH, comparison peptide (SVSEIQLMHNLGKHLNSMERVEWLRKKLQDVHNFVALG; Parathyroid hormone; UniProt P01270 32-69, looked up, fragment)” here?
The value was “about 27%”.

With “hPTH-(28-48): synthetic hPTH peptide tested for cross-reaction in the RIAs (LQDVHNFVALGAPLAPRDAGS; Parathyroid hormone; UniProt P01270 59-79, looked up, fragment)” as the molecule, how does the “cross-reaction in the hPTH-(53-84)-RIA” value (hPTH-(53-84)-RIA) read?
Its value is “do not show any cross-reaction”.

What about the “cross-reaction in the hPTH-(44-68)-RIA” value (hPTH-(44-68)-RIA) of the same molecule?
Its value is “do not show any cross-reaction”.

With “hPTH-(44-68): synthetic hPTH peptide, standard of the medium-regional RIA (RDAGSQRPRKKEDNVLVESHEKSLG; Parathyroid hormone; UniProt P01270 75-99, looked up, fragment)” as the molecule, how does the “cross-reaction in the hPTH-(53-84)-RIA” value (hPTH-(53-84)-RIA) read?
Its value is “do not show any cross-reaction”.

For “hPTH-(53-84): synthetic hPTH peptide, standard of the C-terminal RIA (KKEDNVLVESHEKSLGEADKADVNVLTKAKSQ; Parathyroid hormone; UniProt P01270 84-115, looked up, fragment)”, which “cross-reaction in the hPTH-(44-68)-RIA” value (hPTH-(44-68)-RIA) is on record?
Its value is 100%.

Which “cross-reaction in the hPTH-(53-84)-RIA” value (hPTH-(53-84)-RIA) does the source give for “hPTH-(64-84): synthetic hPTH peptide tested for cross-reaction in the RIAs (EKSLGEADKADVNVLTKAKSQ; Parathyroid hormone; UniProt P01270 95-115, looked up, fragment)” here?
Its value is 100%.

And the “cross-reaction in the hPTH-(44-68)-RIA” value (hPTH-(44-68)-RIA)?
The value was “do not show any cross-reaction”.

B1: hPTH-(1-84): the secreted PTH molecule consisting of 84 amino acids (peptide, UniProt P01270 32-115, looked up)
Parathyroid hormone: SVSEIQLMHNLGKHLNSMERVEWLRKKLQDVHNFVALGAPLAPRDAGSQRPRKKEDNVLVESHEKSLGEADKADVNVLTKAKSQ
modifications: Parathyroid hormone
notes: the secreted PTH molecule consisting of 84 amino acids
Which results are given for B1?
cross-reaction in the hPTH-(53-84)-RIA (hPTH-(53-84)-RIA): 100%; cross-reaction in the hPTH-(44-68)-RIA (hPTH-(44-68)-RIA): 100%

Source: US5744444A, “HPTH-fragment-(1-37), the preparation thereof, medicaments containing same and the use thereof” (HaemoPep Pharma GmbH, priority 1989, dated 1998)
